Experimental data as given in patent US8088410B2, “25-hydroxy Vitamin D3 compositions” (DSM IP Assets B.V., priority 2002, dated 2012).

Test: Premix stability: percent retention of 25-hydroxy Vitamin D3 in stored feed premixes (Example 7)
Assay type: physicochemical
Details: Basic and Vitamin Premixes, stored at 25° C. and 35° C. up to 3 months (FIGS. 6 and 7)
Protocol: Three premixes for use in animal feed were prepared having the following components in the following proportions by percent weight based on the total weight of the premix.
Each of these premix compositions was prepared using a microencapsulated oil of the present invention or a prior art beadlet containing 25-hydroxy Vitamin D3. In addition, a control formulation was prepared, in which Vitamin D3 was substituted for the 25-hydroxy Vitamin D3. Each of the premixes was stored at 25° C. and 35° C., for a length of time up to 3 months. The percent retention of the 25-hydroxy Vitamin D3 was determined at each time and temperature.

C=C1CCC(O)C/C1=C/C=C1\CCCC2(C)C1CCC2C(C)CCCC(C)(C)O (stereo not shown) [25-hydroxy Vitamin D3]
stability of 25-hydroxy Vitamin D3 (% retention) in premix: less than that of Vitamin D3
